From US20240327379A1, “MANDELATE FORM OF 1-(4-(((6-AMINO-5-(4-PHENOXYPHENYL)PYRIMIDIN-4-YL)AMINO)METHYL)PIPERIDIN-1-YL)PROP-2-EN-1-ONE” (Sandoz AG, priority 2021, published 2024)

What was measured:
[1] = Gravimetric moisture sorption (GMS); assay type: physicochemical; settings: (25±0.1)° C.
Protocol: Gravimetric moisture sorption was performed with an SPSx-1μ moisture sorption analyzer (ProUmid, Ulm). The measurement cycle was started at ambient relative humidity (RH) of 30%. RH was then decreased to 5% in 5% steps, followed by a further decrease to 3% and to 0%. […] Finally, RH was increased to ambient relative humidity of 30% in 5% steps. The time per step was set to a minimum of 2 hours and a maximum of 6 hours. If an equilibrium condition with a constant mass of =0.01% within 1 hour was reached before the maximum time for all examined samples the sequential humidity step was applied before the maximum time of 6 hours. If no equilibrium was achieved the consecutive humidity step was applied after the maximum time of 6 hours. The temperature was (25±0.1)° C.

[2] = Thermogravimetric analysis (TGA); assay type: physicochemical; settings: heated from 25° C. at 10 K/min, nitrogen purge
Protocol: TGA was performed on a Mettler TGA/DSC 1 instrument. The sample (6.53 mg) was heated in a 100 microliter aluminium pan, closed with an aluminium lid, from 25 to 250° C. at a rate of 10 K/min. The lid was automatically pierced at the beginning of the measurement. Nitrogen (purge rate 30 mL/min) was used as purge gas.

- hygroscopic behaviour ([1]; GMS 0-90% RH): slightly hygroscopic
- mass difference in the sorption cycle between 0 and 80% RH ([1]; GMS sorption cycle, 0 to 80% RH): about 0.5 w-%
- maximum uptake between 0 and 90% RH ([1]; GMS, 0 to 90% RH): about 0.6%
- mass loss from the beginning of the measurement until about 170° C. [2]: about 0.1%
SMILES: C=CC(=O)N1CCC(CNc2ncnc(N)c2-c2ccc(Oc3ccccc3)cc2)CC1 [crystalline evobrutinib mandelate form]
- physical stability during moisture sorption/desorption (hysteresis, PXRD after the experiment) ([1]; GMS cycle 0-90% RH, PXRD after the experiment): no structural changes appear during the experiment
